Max response and EC50 data for 18 compounds are collected here from publication PMC3351444, “Molecular Evolution of a Peptide GPCR Ligand Driven by Artificial Neural Networks” (PLoS ONE, 2012).

The target of the test is T1, human CMKLR1 (Homo sapiens, UniProt Q99788).
T1 construct: host or cells: HEK293A (Invitrogen), stably expressing human Gα15
T1 sequence (Q99788 1-373): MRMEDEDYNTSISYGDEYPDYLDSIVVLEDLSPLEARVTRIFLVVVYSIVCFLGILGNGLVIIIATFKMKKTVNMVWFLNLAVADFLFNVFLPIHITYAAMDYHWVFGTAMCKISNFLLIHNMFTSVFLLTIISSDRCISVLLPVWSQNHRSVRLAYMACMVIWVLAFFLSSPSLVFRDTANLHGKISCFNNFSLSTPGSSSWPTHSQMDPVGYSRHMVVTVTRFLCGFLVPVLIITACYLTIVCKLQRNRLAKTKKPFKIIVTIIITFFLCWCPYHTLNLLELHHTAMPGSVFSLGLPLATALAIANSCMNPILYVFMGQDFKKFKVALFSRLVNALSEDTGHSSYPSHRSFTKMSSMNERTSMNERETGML
Nature of the test: Ca2+ mobilization (CellLux imaging) agonist assay in HEK293A cells expressing CMKLR1 and Gα15. The test is classed as cell-based. Conditions: for EC50: NR where no EC50 is given, read-out: EC50. Here is the method: HEK293A cells (Invitrogen) expressing CMKLR1 and Gα15 were seeded at 5*10^4 cells/well in a poly-D-lysine coated 96-well black well/clear bottom plate (BD Falcon) and cultured overnight. From eighteen to twenty-four hours later, cells were loaded with FLUO4-AM (Invitrogen). Then the cells were washed two times with C1 solution (130 mM NaCl, 5 mM KCl, 10 mM HEPES pH 7.4, 2 mM CaCl2, and 10 mM Glucose). After the final wash, a 100 µL of residual volume remained on the cells. Peptides were dissolved in 10% DMSO to a concentration of 1 mM and were diluted in C1 solution with 0.1 % BSA. They were aliquoted as 2x solutions in 96-well plates and were simultaneously transferred by the robotic system within the imager from the ligand plate to the cell plate. […] Fluorescence data was generated in duplicate and experiments were repeated for at least three times. […] For the calculation of concentration-response curves, signals of two wells receiving the same concentration of test substances were averaged and the fluorescence changes of corresponding buffer C1 wells were subtracted. Signals were normalized to background fluorescence. For the calculation of EC50 values, plots of amplitude versus concentrations were prepared in SigmaPlot 11.

The mark [1] stands for this setting: Ca2+ mobilization, CMKLR1, decimal comma.

Like-named read-outs stand apart in the source and are kept apart here. Square brackets hold non-standard residues; d marks the D form. Peptide text beside a SMILES is read from it.

`CC(C)C[C@H](NC(=O)[C@@H](N)Cc1ccc(O)cc1)C(=O)N1CCC[C@H]1C(=O)NCC(=O)N[C@@H](CCC(N)=O)C(=O)N[C@@H](Cc1ccccc1)C(=O)N[C@H](Cc1ccccc1)C(=O)N[C@@H](Cc1ccccc1)C(=O)N[C@@H](CO)C(N)=O` [compound 4] (H-YLPGQF[dF]FS-NH2; N-terminus assumed): the max response under setting [1] is 1,66 DF/F0.

For `C[C@H](NC(=O)[C@@H](Cc1ccccc1)NC(=O)[C@H](CCC(N)=O)NC(=O)CNC(=O)[C@@H]1CCCN1C(=O)[C@@H](Cc1ccc(O)cc1)NC(=O)[C@H](N)Cc1ccc(O)cc1)C(=O)N[C@H](Cc1ccc(O)cc1)C(=O)N[C@H](CO)C(N)=O` [compound 8] (H-[dY][dY]PGQ[dF]A[dY][dS]-NH2; N-terminus assumed), under setting [1], the max response is recorded as 1,31 DF/F0 and the EC50 amounted to 1.88 µM.

Regarding `CC[C@H](C)[C@H](NC(=O)CNC(=O)[C@@H]1CCCN1C(=O)[C@H](Cc1ccccc1)NC(=O)[C@@H](N)Cc1ccc(O)cc1)C(=O)N[C@@H](Cc1ccccc1)C(=O)N[C@@H](C)C(=O)N[C@H](Cc1ccccc1)C(=O)N[C@@H](CO)C(N)=O` [compound 10] (H-YFPGIFA[dF]S-NH2; N-terminus assumed), under setting [1], the max response is recorded as 1,48 DF/F0 and the EC50 turned out to be 2.22 µM.

`NC(=O)CC[C@H](NC(=O)CNC(=O)[C@@H]1CCCN1C(=O)[C@H](Cc1ccccc1)NC(=O)[C@H](N)Cc1ccccc1)C(=O)N[C@@H](Cc1c[nH]c2ccccc12)C(=O)NCC(=O)N[C@@H](Cc1ccccc1)C(=O)N[C@@H](CO)C(N)=O` [compound 12] (H-[dF]FPGQWGFS-NH2; N-terminus assumed): under setting [1], the max response is 1,56 DF/F0 and the EC50 amounted to 3.01 µM.

Take `C[C@H](NC(=O)[C@@H](Cc1ccccc1)NC(=O)[C@H](CCC(N)=O)NC(=O)CNC(=O)[C@@H]1CCCN1C(=O)[C@H](Cc1ccccc1)NC(=O)[C@@H](N)Cc1ccc(O)cc1)C(=O)N[C@@H](Cc1c[nH]c2ccccc12)C(=O)N[C@@H](CO)C(N)=O` [compound 13] (H-YFPGQ[dF]AWS-NH2; N-terminus assumed): under setting [1], the max response is on record as 1,22 DF/F0 and the EC50 amounted to 3.2 µM.

`C[C@H](NC(=O)[C@H](Cc1ccccc1)NC(=O)[C@H](CCC(N)=O)NC(=O)[C@H]1CCCN1C(=O)CNC(=O)[C@H](Cc1ccccc1)NC(=O)[C@@H](N)Cc1ccc(O)cc1)C(=O)N[C@@H](Cc1ccccc1)C(=O)N[C@@H](CO)C(N)=O` [compound 14] (H-YFG[dP]QFAFS-NH2; N-terminus assumed): under setting [1], the max response is given as 1,34 DF/F0 and the EC50 was determined as 3.44 µM.

As for `NC(=O)CC[C@H](NC(=O)CNC(=O)[C@@H]1CCCN1C(=O)[C@@H](Cc1ccccc1)NC(=O)[C@H](N)Cc1ccccc1)C(=O)N[C@@H](Cc1ccccc1)C(=O)NCC(=O)N[C@H](Cc1ccc(O)cc1)C(=O)N[C@H](CC(N)=O)C(N)=O` [compound 15] (H-[dF][dF]PGQFG[dY][dN]-NH2; N-terminus assumed), under setting [1], the max response is recorded as 1,47 DF/F0 and the EC50 was 3.47 µM.

Turning to `CC[C@@H](C)[C@@H](NC(=O)[C@H](Cc1ccccc1)NC(=O)[C@H](CCC(N)=O)NC(=O)CNC(=O)[C@@H]1CCCN1C(=O)[C@H](Cc1ccccc1)NC(=O)[C@H](N)Cc1c[nH]c2ccccc12)C(=O)N[C@@H](Cc1ccccc1)C(=O)N[C@@H](CO)C(N)=O` [compound 18] (H-[dW]FPGQF[dI]FS-NH2; N-terminus assumed), under setting [1], the max response is on record as 1,40 DF/F0 and the EC50 was found to be 7.13 µM.

For `C[C@H](NC(=O)[C@H](Cc1ccc(O)cc1)NC(=O)[C@@H](CCC(N)=O)NC(=O)CNC(=O)[C@@H]1CCCN1C(=O)[C@@H](Cc1ccc(O)cc1)NC(=O)[C@@H](N)Cc1ccc(O)cc1)C(=O)N[C@@H](Cc1ccc(O)cc1)C(=O)N[C@@H](CO)C(N)=O` [compound 19] (H-Y[dY]PG[dQ]YAYS-NH2; N-terminus assumed), under setting [1], the max response is 0,42 DF/F0 and the EC50 turned out to be 9.55 µM.

As for `C[C@H](N)C(=O)N[C@H](Cc1c[nH]c2ccccc12)C(=O)N1CCC[C@H]1C(=O)NCC(=O)N[C@@H](CCC(N)=O)C(=O)N[C@@H](Cc1ccccc1)C(=O)N[C@@H](C)C(=O)N[C@H](Cc1ccc(O)cc1)C(=O)N[C@@H](CO)C(N)=O` [compound 21] (H-A[dW]PGQFA[dY]S-NH2; N-terminus assumed), under setting [1], the max response is 0,30 DF/F0 and the EC50 came to 16.5 µM.

Take `C[C@H](NC(=O)[C@H](Cc1c[nH]c2ccccc12)NC(=O)[C@H](CCC(N)=O)NC(=O)CNC(=O)[C@@H]1CCCN1C(=O)[C@H](Cc1c[nH]c2ccccc12)NC(=O)[C@@H](N)Cc1ccc(O)cc1)C(=O)N[C@H](Cc1ccccc1)C(=O)N[C@@H](CS)C(N)=O` [compound 22] (H-YWPGQWA[dF]C-NH2; N-terminus assumed): under setting [1], the max response is listed as 0,44 DF/F0 and the 50% effective concentration (EC50) is 18.6 µM.

On to `CC(C)C[C@H](NC(=O)[C@@H](N)Cc1ccc(O)cc1)C(=O)N1CCC[C@H]1C(=O)NCC(=O)N[C@@H](CCC(N)=O)C(=O)N[C@@H](Cc1ccccc1)C(=O)N[C@@H](C)C(=O)N[C@@H](Cc1ccccc1)C(=O)N[C@H](CO)C(=O)O` [compound 33], for which the max response is given as 0,51 DF/F0.

Consider `CSCC[C@H](NC(=O)[C@@H](N)Cc1ccc(O)cc1)C(=O)N1CCC[C@H]1C(=O)NCC(=O)N[C@@H](CCC(N)=O)C(=O)N[C@@H](Cc1ccccc1)C(=O)N[C@@H](C)C(=O)N[C@@H](Cc1ccccc1)C(=O)N[C@H](CO)C(=O)O` [compound 40] (H-YMPGQFAF[dS]-OH; N-terminus assumed), for which the max response is on record as 0,74 DF/F0.

With `CC(C)C[C@H](NC(=O)[C@H](N)Cc1ccc(O)cc1)C(=O)N1CCC[C@H]1C(=O)NCC(=O)N[C@@H](CCC(N)=O)C(=O)N[C@@H](Cc1ccc(O)cc1)C(=O)N[C@@H](C)C(=O)N[C@@H](Cc1ccccc1)C(=O)N[C@@H](Cc1ccccc1)C(=O)O` [compound 43] (H-[dY]LPGQYAFF-OH; N-terminus assumed), the max response under setting [1] is listed as 1,13 DF/F0.

Consider `CC(C)C[C@H](NC(=O)[C@@H](N)Cc1ccc(O)cc1)C(=O)N1CCC[C@H]1C(=O)NCC(=O)N[C@@H](CCC(N)=O)C(=O)N[C@@H](Cc1ccc(O)cc1)C(=O)N[C@@H](C)C(=O)N[C@@H](Cc1ccccc1)C(=O)N[C@H](CO)C(=O)O` [compound 81] (H-YLPGQYAF[dS]-OH; N-terminus assumed), for which the max response under setting [1] is recorded as 1,73 DF/F0.

With `C[C@H](NC(=O)[C@H](Cc1ccccc1)NC(=O)[C@H](CCC(N)=O)NC(=O)CNC(=O)[C@H]1CCCN1C(=O)CNC(=O)[C@@H]1CCCN1)C(=O)N[C@@H](Cc1ccccc1)C(=O)N[C@H](CO)C(=O)O` [compound 97] (H-PG[dP]GQFAF[dS]-OH; N-terminus assumed), under setting [1], the max response is 1,72 DF/F0 and the EC50 turned out to be 0.1 µM.

With `CC(C)C[C@@H](NC(=O)[C@H](N)Cc1ccc(O)cc1)C(=O)N1CCC[C@H]1C(=O)NCC(=O)N[C@@H](CCC(N)=O)C(=O)N[C@@H](Cc1ccccc1)C(=O)N[C@@H](C)C(=O)N[C@@H](Cc1ccccc1)C(=O)N[C@H](CO)C(=O)O` [compound 98], the max response is 1,68 DF/F0.

`C[C@H](NC(=O)[C@H](CO)NC(=O)[C@H](Cc1ccccc1)NC(=O)[C@H](C)NC(=O)[C@H](Cc1ccccc1)NC(=O)[C@H](CCC(N)=O)NC(=O)[C@@H](N)Cc1ccccc1)C(=O)N[C@@H](Cc1ccccc1)C(=O)N[C@H](CO)C(=O)O` [compound 103] (H-FQFAFSAF[dS]-OH; N-terminus assumed): under setting [1], the max response is listed as 1,76 DF/F0 and the EC50 was determined as 0.194 µM.
